One assay deals with panel of 80 human PKs. Kind of assay: Mammalian kinase profiling, whole panel (4f, 4m, 4y). In kind it is biochemical. To be noted: 10 μM. How it is done:
(§1) To assess the selectivity of the aminopyrazole inhibitors, remaining activity at 10 μM concentration was measured for compounds 4f, 4m, and 4y against a panel of 80 human PKs and for compound 9g against 124 human PKs. […] Compound 4m inhibited only two PKs, namely GSK3β and CDK2, at more than 80%.
(§2) Selected compounds were screened against a panel of mammalian kinases routinely run by the Division of Signal Transduction Therapy (DSTT) at the University of Dundee in duplicate at 10 μM.[32] Enzymes included in the panel and assay conditions are reported in the literature. All biochemical assays are run below the Km^app for the ATP for each enzyme, allowing comparison of inhibition across the panel.

Another assay has as its target T1, P38g MAPK (Homo sapiens, UniProt P53778).
T1 construct: purchased Division of Signal Transduction Therapy (DSTT), University of Dundee
T1 sequence (P53778 1-367): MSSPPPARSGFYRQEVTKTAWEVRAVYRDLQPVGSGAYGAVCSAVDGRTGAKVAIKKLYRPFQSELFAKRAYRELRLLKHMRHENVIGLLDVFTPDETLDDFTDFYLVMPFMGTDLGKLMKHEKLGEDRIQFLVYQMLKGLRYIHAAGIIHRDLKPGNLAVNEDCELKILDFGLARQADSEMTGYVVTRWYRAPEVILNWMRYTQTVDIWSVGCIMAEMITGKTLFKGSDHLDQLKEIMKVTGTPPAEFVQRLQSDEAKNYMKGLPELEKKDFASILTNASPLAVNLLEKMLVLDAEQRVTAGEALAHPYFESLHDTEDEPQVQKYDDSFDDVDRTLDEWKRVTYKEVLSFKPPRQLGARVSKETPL
Put plainly: Mammalian kinase profiling (DSTT panel). It is filed as biochemical. The note with it: 10 μM; average percentage of remaining activity. How it is done:
as §1, §2

For the next assay, the target named is T2, EPH A2 (Homo sapiens, UniProt P29317).
T2 construct: purchased Division of Signal Transduction Therapy (DSTT), University of Dundee
Kind of assay: Mammalian kinase profiling (DSTT panel). It is filed as biochemical. To be noted: 10 μM; average percentage of remaining activity. Here is the method: as §1, §2

Another assay addresses T3, IR-HIS (Homo sapiens, UniProt P06213).
T3 construct: purchased Division of Signal Transduction Therapy (DSTT), University of Dundee
Put plainly: Mammalian kinase profiling (DSTT panel). It is filed as biochemical. To be noted: 10 μM; average percentage of remaining activity. Here is the method:
as §1, §2

The target of another assay is T4, SYK (Homo sapiens, UniProt P43405).
T4 construct: purchased Division of Signal Transduction Therapy (DSTT), University of Dundee
Kind of assay: Mammalian kinase profiling (DSTT panel). In kind it is biochemical. To be noted: 10 μM; average percentage of remaining activity. How it is done: as §1, §2

The next assay addresses T5, MST2 (Homo sapiens, UniProt Q13188).
T5 construct: purchased Division of Signal Transduction Therapy (DSTT), University of Dundee
T5 sequence (Q13188 1-491): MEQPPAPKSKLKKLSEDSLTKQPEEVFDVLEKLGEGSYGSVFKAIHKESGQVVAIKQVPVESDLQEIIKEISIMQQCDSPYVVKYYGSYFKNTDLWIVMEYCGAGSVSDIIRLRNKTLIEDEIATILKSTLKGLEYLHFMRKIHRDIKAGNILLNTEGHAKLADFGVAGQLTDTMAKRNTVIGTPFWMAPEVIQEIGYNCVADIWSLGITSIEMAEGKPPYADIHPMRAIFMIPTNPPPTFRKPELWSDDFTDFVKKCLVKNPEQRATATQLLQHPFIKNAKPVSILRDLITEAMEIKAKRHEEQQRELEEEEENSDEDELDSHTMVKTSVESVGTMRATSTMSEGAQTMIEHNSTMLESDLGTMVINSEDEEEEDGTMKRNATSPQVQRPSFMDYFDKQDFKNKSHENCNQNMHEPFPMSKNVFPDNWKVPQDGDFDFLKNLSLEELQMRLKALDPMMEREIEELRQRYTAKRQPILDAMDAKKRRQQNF
Kind of assay: Mammalian kinase profiling (DSTT panel). It is filed as biochemical. The note with it: 10 μM; average percentage of remaining activity. How it is done: as §1, §2

For a further assay, the target named is T6, SmMLCK (Homo sapiens, UniProt Q15746).
T6 construct: purchased Division of Signal Transduction Therapy (DSTT), University of Dundee
Put plainly: Mammalian kinase profiling (DSTT panel). It is filed as biochemical. The note with it: 10 μM; average percentage of remaining activity. How it is done:
as §1, §2

Another assay addresses T7, PAK4 (Homo sapiens, UniProt O96013).
T7 construct: purchased Division of Signal Transduction Therapy (DSTT), University of Dundee
Kind of assay: Mammalian kinase profiling (DSTT panel). It is filed as biochemical. The note with it: 10 μM; average percentage of remaining activity. How it is done: as §1, §2

Another assay has as its target T8, IRR (Homo sapiens, UniProt P14616).
T8 construct: purchased Division of Signal Transduction Therapy (DSTT), University of Dundee
Kind of assay: Mammalian kinase profiling (DSTT panel). The note with it: 10 μM; average percentage of remaining activity. In kind it is biochemical. How it is done: as §1, §2

For a further assay, the target named is T9, PKA (Homo sapiens, UniProt P17612).
T9 construct: purchased Division of Signal Transduction Therapy (DSTT), University of Dundee
Put plainly: Mammalian kinase profiling (DSTT panel). In kind it is biochemical. To be noted: 10 μM; average percentage of remaining activity. Here is the method: as §1, §2

In the next assay the target is T10, MSK1 (Homo sapiens, UniProt O75582).
T10 construct: purchased Division of Signal Transduction Therapy (DSTT), University of Dundee
Kind of assay: Mammalian kinase profiling (DSTT panel). The note with it: 10 μM; average percentage of remaining activity. It is filed as biochemical. How it is done:
as §1, §2

The target in a further assay is T11, CHK2 (Homo sapiens, UniProt O96017).
T11 construct: purchased Division of Signal Transduction Therapy (DSTT), University of Dundee
Put plainly: Mammalian kinase profiling (DSTT panel). The note with it: 10 μM; average percentage of remaining activity. It is filed as biochemical. Here is the method:
as §1, §2

A further assay concerns the target T12, P38a MAPK (Homo sapiens, UniProt Q16539).
T12 construct: purchased Division of Signal Transduction Therapy (DSTT), University of Dundee
Kind of assay: Mammalian kinase profiling (DSTT panel). In kind it is biochemical. To be noted: 10 μM; average percentage of remaining activity. Here is the method:
as §1, §2

Another assay has as its target T13, VEG-FR (Homo sapiens, UniProt P17948).
T13 construct: purchased Division of Signal Transduction Therapy (DSTT), University of Dundee
Kind of assay: Mammalian kinase profiling (DSTT panel). It is filed as biochemical. The note with it: 10 μM; average percentage of remaining activity. How it is done: as §1, §2

The test system of a further assay is AMPK. Put plainly: Mammalian kinase profiling (DSTT panel). It is filed as biochemical, human. The note with it: 10 μM; average percentage of remaining activity. How it is done: as §1, §2

T12 sequence (Q16539 whole entry): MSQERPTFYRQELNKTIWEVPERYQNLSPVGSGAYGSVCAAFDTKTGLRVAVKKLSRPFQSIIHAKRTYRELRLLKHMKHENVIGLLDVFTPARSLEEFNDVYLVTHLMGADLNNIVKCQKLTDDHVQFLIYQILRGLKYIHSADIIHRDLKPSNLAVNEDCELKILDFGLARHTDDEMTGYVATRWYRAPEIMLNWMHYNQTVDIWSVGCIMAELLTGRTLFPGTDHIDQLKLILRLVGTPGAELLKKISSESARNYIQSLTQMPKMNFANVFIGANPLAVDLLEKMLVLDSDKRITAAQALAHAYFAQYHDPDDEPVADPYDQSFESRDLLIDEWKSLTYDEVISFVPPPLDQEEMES
T2 sequence (P29317 24-976): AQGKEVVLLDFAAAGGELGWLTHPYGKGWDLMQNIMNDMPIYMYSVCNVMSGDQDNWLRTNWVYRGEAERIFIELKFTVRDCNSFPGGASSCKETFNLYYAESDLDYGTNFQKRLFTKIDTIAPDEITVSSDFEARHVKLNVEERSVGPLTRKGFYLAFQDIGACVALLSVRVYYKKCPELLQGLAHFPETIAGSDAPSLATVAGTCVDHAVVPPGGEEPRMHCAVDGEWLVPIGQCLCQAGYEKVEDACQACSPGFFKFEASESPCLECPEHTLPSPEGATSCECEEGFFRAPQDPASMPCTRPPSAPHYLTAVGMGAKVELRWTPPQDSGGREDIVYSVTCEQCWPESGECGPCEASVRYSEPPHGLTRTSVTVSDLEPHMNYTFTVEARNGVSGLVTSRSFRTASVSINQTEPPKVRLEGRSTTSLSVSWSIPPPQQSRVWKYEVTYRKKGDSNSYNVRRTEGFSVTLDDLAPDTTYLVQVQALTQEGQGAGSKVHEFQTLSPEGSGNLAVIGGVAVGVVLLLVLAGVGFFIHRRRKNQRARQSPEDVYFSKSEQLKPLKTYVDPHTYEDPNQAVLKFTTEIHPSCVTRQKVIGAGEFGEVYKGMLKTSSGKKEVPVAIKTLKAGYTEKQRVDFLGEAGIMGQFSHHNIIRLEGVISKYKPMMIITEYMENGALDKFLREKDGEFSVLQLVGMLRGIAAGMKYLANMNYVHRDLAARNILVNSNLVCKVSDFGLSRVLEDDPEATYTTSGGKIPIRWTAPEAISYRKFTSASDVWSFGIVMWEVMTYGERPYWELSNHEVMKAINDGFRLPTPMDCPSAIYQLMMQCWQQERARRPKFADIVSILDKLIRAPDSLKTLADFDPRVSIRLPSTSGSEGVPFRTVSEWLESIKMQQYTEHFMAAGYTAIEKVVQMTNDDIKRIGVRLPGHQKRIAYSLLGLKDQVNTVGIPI
T11 sequence (O96017 whole entry): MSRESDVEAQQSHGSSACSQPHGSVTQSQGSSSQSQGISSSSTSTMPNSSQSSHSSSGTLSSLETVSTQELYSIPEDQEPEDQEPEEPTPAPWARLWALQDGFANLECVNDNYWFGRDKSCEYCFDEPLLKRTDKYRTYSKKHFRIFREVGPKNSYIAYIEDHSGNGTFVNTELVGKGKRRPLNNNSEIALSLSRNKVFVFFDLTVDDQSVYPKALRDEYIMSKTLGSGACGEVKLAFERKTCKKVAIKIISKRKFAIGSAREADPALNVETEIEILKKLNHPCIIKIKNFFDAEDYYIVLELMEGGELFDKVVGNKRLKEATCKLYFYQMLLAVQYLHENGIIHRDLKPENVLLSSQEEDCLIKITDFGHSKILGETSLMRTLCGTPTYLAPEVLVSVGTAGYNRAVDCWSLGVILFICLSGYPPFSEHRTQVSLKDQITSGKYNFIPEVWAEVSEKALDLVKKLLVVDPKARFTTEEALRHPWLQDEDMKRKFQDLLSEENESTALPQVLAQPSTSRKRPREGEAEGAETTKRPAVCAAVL
T13 sequence (P17948 27-1338): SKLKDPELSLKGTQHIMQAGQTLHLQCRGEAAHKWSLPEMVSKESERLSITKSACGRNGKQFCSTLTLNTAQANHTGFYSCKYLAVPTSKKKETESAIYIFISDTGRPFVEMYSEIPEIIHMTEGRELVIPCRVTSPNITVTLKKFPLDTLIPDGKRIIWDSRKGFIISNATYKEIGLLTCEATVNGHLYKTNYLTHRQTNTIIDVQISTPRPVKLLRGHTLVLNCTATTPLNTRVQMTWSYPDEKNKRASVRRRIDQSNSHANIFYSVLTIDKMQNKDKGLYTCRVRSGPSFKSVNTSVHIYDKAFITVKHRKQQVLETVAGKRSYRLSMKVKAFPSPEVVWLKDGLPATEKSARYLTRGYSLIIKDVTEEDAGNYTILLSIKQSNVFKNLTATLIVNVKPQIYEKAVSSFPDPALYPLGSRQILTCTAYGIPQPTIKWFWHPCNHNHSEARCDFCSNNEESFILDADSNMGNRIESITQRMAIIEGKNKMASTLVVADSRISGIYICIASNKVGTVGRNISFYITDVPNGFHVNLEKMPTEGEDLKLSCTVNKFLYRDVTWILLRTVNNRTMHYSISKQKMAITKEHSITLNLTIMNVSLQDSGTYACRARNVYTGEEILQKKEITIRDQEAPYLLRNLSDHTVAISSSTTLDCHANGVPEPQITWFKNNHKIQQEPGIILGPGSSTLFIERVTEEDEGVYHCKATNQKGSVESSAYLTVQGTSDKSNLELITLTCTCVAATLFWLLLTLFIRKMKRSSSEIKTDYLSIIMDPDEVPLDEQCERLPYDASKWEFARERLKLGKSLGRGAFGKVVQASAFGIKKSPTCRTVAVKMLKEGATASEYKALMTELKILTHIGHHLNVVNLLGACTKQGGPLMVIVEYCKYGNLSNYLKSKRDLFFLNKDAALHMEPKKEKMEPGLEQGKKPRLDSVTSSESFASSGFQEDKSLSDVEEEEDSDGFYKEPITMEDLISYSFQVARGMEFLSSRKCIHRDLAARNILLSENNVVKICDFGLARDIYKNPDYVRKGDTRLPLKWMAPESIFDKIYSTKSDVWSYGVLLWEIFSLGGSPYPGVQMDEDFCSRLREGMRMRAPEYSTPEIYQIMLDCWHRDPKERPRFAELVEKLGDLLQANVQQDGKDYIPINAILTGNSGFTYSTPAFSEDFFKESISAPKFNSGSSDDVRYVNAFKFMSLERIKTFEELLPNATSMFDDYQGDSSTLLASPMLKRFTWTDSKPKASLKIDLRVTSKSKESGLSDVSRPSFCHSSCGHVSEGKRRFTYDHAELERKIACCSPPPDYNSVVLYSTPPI
T8 sequence (P14616 27-1297): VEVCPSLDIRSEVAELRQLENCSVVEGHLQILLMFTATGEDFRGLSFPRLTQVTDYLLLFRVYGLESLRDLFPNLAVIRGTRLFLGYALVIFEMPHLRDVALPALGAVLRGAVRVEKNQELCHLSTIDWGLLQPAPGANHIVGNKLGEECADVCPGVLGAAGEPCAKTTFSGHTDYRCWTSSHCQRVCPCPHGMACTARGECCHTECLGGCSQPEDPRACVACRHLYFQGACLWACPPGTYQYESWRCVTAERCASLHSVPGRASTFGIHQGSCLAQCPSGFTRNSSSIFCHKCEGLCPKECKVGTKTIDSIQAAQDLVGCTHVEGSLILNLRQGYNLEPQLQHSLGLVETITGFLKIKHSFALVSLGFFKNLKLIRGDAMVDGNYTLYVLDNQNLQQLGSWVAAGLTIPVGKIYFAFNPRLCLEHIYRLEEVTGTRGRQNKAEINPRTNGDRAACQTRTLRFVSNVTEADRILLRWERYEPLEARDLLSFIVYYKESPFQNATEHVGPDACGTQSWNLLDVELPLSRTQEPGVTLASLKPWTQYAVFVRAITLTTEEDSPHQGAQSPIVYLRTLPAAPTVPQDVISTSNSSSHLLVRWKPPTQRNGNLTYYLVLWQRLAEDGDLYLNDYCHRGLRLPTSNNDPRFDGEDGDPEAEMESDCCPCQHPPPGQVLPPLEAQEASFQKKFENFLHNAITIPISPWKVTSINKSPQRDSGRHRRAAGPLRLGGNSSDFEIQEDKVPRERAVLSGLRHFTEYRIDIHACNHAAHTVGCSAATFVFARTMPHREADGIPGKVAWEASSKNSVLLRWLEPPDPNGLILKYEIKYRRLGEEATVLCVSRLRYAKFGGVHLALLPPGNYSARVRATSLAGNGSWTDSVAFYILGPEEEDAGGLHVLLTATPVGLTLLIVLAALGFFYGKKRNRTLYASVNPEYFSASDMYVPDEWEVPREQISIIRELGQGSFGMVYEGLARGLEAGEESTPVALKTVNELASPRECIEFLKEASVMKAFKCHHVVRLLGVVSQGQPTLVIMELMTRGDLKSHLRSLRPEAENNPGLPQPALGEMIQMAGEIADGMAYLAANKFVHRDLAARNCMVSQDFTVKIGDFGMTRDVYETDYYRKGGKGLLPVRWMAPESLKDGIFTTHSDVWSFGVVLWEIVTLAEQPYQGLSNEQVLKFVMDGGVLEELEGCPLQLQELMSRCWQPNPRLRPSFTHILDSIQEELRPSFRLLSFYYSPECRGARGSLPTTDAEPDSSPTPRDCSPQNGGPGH
T7 sequence (O96013 whole entry): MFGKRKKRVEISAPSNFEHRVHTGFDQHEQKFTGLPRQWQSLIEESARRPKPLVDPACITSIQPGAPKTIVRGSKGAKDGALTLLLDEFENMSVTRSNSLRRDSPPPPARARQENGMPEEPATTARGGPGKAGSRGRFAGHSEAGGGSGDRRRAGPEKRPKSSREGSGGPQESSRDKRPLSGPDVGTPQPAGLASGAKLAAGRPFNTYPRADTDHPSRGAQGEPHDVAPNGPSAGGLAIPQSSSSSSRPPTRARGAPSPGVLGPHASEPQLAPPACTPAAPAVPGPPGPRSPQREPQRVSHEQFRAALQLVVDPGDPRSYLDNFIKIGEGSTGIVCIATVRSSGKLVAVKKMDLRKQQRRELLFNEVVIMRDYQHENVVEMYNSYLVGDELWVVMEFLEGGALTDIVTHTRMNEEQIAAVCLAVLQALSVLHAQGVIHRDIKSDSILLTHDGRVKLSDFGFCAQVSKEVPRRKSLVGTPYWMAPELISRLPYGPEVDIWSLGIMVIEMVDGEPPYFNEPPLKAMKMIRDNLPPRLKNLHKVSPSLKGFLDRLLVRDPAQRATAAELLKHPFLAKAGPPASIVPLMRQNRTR

On to `CO[C@H]1CC[C@H](NC(=O)c2n[nH]cc2NC(=O)c2ccccc2)CC1` [Compound 4f, 4-Benzamido-N-(4-methoxycyclohexyl)-1H-pyrazole-3-carboxamide], for which the “number of PKs inhibited by more than 80%” value in the assay on panel of 80 human PKs is listed as “seven”. Also, the “P38g MAPK activity compared to the control” value at P38g MAPK came out at 60%. The “EPH A2 activity compared to the control” value on EPH A2 is 100%. For the same molecule, the “IR-HIS activity compared to the control” value on IR-HIS amounted to 84%. Besides, at SYK, the “SYK activity compared to the control” value came to 78%. Besides, the “MST2 activity compared to the control” value at MST2 was found to be 72%. The “SmMLCK activity compared to the control” value at SmMLCK amounted to 25%. For the same molecule, on PAK4, the “PAK4 activity compared to the control” value worked out at 68%. Also, the “IRR activity compared to the control” value on IRR is recorded as 39%. The “PKA activity compared to the control” value at PKA is given as 81%. The “MSK1 activity compared to the control” value at MSK1 was found to be 80%. Moreover, the “CHK2 activity compared to the control” value on CHK2 was determined as 100%. The “P38a MAPK activity compared to the control” value on P38a MAPK is 81%. The “VEG-FR activity compared to the control” value at VEG-FR is listed as 52%.

As for `COc1cccc(OC)c1C(=O)Nc1c[nH]nc1C(=O)NC1CCC(OC)CC1` (stereo not shown) [Compound 4m, 4-(2,6-Dimethoxybenzamido)-N-(4-methoxycyclohexyl)-1H-pyrazole-3-carboxamide], the “number of PKs inhibited by more than 80%” value with panel of 80 human PKs is given as “two”. For the same molecule, the “AMPK activity compared to the control” value with AMPK turned out to be 88%. Besides, the “P38g MAPK activity compared to the control” value at P38g MAPK came to 72%. For the same molecule, the “EPH A2 activity compared to the control” value on EPH A2 is given as 100%. The “IR-HIS activity compared to the control” value on IR-HIS is listed as 99%. Further, the “SYK activity compared to the control” value on SYK turned out to be 100%. Further, the “MST2 activity compared to the control” value at MST2 is given as 81%. The “SmMLCK activity compared to the control” value on SmMLCK is 65%. Besides, the “PAK4 activity compared to the control” value on PAK4 came to 74%. On IRR, the “IRR activity compared to the control” value came out at 87%. The “PKA activity compared to the control” value on PKA is recorded as 74%. Besides, on MSK1, the “MSK1 activity compared to the control” value came out at 86%. The “CHK2 activity compared to the control” value on CHK2 came to 75%. For the same molecule, on P38a MAPK, the “P38a MAPK activity compared to the control” value turned out to be 80%. In addition, at VEG-FR, the “VEG-FR activity compared to the control” value turned out to be 90%.

Take `CO[C@H]1CC[C@H](NC(=O)c2n[nH]cc2NC(=O)c2ccc(-c3ccccc3)o2)CC1` [Compound 4y, N-(4-Methoxycyclohexyl)-4-(5-phenylfuran-2-carboxamido)-1H-pyrazole-3-carboxamide]: the “AMPK activity compared to the control” value in the assay on AMPK is listed as 49%. Also, the “P38g MAPK activity compared to the control” value on P38g MAPK amounted to 24%. The “EPH A2 activity compared to the control” value on EPH A2 is reported as 100%. Also, the “IR-HIS activity compared to the control” value at IR-HIS was found to be 50%. In addition, the “SYK activity compared to the control” value on SYK is given as 70%. Moreover, the “MST2 activity compared to the control” value on MST2 was found to be 69%. Moreover, at SmMLCK, the “SmMLCK activity compared to the control” value worked out at 23%. The “PAK4 activity compared to the control” value on PAK4 worked out at 27%. In addition, the “IRR activity compared to the control” value on IRR is 26%. Besides, the “PKA activity compared to the control” value on PKA is 76%. Further, on MSK1, the “MSK1 activity compared to the control” value is 66%. The “CHK2 activity compared to the control” value at CHK2 is listed as 51%. At P38a MAPK, the “P38a MAPK activity compared to the control” value is reported as 71%. For the same molecule, the “VEG-FR activity compared to the control” value at VEG-FR was 29%.

For the origin of these results see PMC4175002, “The Design and Synthesis of Potent and Selective Inhibitors of Trypanosoma brucei Glycogen Synthase Kinase 3 for the Treatment of Human African Trypanosomiasis” (Journal of Medicinal Chemistry, 2014).
